Assay results taken from patent publication US20050187302A1, “Method for treatment or prevention of osteoporosis in individuals with high bone turnover” (Hormos Medical Corporation, priority 2004, published 2005).
Read-outs that look alike come from different tables or passages of the source.

Columns and labels:
postmenopausal women = postmenopausal women with high bone marker levels at baseline, daily doses 60 mg and 90 mg, 12 weeks
Experimental: In the clinical trials, bone turnover was evaluated by measuring the levels of bone formation markers in serum and bone resorption markers in urine. Both bone resorption markers e.g. amino terminal telopeptide of type I collagen (U-NTX) and carboxy terminal telopeptide of type I collagen (U-CTX) and formation markers e.g. amino terminal propeptide of type I procollagen (S-PINP) and carboxy terminal propeptide of type I procollagen (S-PICP) are increased in menopause, indicating high bone turnover.
Most of the women had normal bone marker levels at baseline. […] The upper limit of normal range in women was 84 μg/l for S-PINP, 65 nmol/mmol Crea for U-NTX, 170 μg/l for S-PICP and 680 μg/mmol Crea for U-CTX.

[1] = tested on: ovariectomized (OVX) female rats; conditions: for Urine total pyridinoline/deoxypyridoline crosslinks, change from base line at 30 days: started one day after OVX, 30 days after OVX; for Trabecular BMD mg/cm^2: 3 months treatment, tibial trabecular bone
Experimental: (§1) High bone turnover was induced to 2-4 months old female rats by ovariectomy (OVX). Treatment with ospemifene was started at different time points after OVX: 1 day, 1, 2, and 3 months after OVX. Bone resorption was evaluated in short-term by bone specific TRAP5b, which is a […] secreted specifically by osteoclasts, and later by pyridinoline/deoxypyridinoline cross links, which are degradation products of bone collagen and excreted in the urine. Finally, during autopsy, usually after 3 months treatment, trabecular bone mineral density was measured.
Female rats, age about 4 months, were ovariectomized. Treatment with vehicle or ospemifene was started at different periods after OVX (from one day to 3 months). The ospemifene doses were 5, 10 or 25 mg/kg and the treatment period was 3 months. Evaluation of the bone occurred by bone mineral density measurement of tibial trabecular bone after the treatment and in some groups also by bone collagen degradation products excreted in the urine.

[2] = tested on: ovariectomized (OVX) female rats; conditions: female rats 2 months old, ospemifene 10 mg/kg, change from baseline, n = 6
Experimental: as §1

## OCCOc1ccc(/C(=C(/CCCl)c2ccccc2)c2ccccc2)cc1 [Ospemifene]
Postmenopausal women
  Change in bone formation and resorption markers (S-PINP, S-PICP, U-CTX, U-NTX) (in words): large decrease both in formation and resorption bone markers
[1]; 5 mg/kg daily
  Urine total pyridinoline/deoxypyridoline crosslinks, change from base line at 30 days: 55 ± 16
[1]; 5 mg/kg, treatment started 1 day after OVX, n = 20
  Trabecular BMD mg/cm^2: 374 ± 21 mg/cm^2
[1]; 10 mg/kg, treatment started 1 month after OVX, n = 8
  Trabecular BMD mg/cm^2: 138 ± 24 mg/cm^2
[1]; 10 mg/kg, treatment started 2 months after OVX, n = 8
  Trabecular BMD mg/cm^2: 78 ± 14 mg/cm^2
[1]; 10 mg/kg, treatment started 3 months after OVX, n = 8
  Trabecular BMD mg/cm^2: 78 ± 17 mg/cm^2
[1]; 25 mg/kg daily
  Urine total pyridinoline/deoxypyridoline crosslinks, change from base line at 30 days: 33 ± 20
[1]; 25 mg/kg, treatment started 1 day after OVX, n = 20
  Trabecular BMD mg/cm^2: 392 ± 15 mg/cm^2
[1]; first month after OVX, high bone turnover
  Excretion of crosslinks, resorption marker (in words): significantly decreases the excretion of crosslinks
[1]; treatment started 1 month after OVX, bone turnover high
  Effect on OVX-induced bone loss (in words): significant beneficial bone effect
[1]; treatment started 2 months after OVX, bone turnover markedly decreased
  Effect on OVX-induced bone loss (in words): modest beneficial bone effect
[1]; treatment started 3 months after OVX, bone turnover low
  Effect on OVX-induced bone loss (in words): almost lost the benefial bone effect
[1]; treatment started 1 day after OVX, bone turnover very high
  Effect on OVX-induced bone loss (in words): able to prevent almost completely the OVX-induced bone loss
[2]
  Change of TRAP5b activity in serum (%) 2 days after OVX: −23.3 ± 5.8%
